≈ marks a conversion by molar mass, not a printed value.
Assays:
Test in all cases: Microtitre plate assay, IC90 determination
Format in all cases: cell-based
[1] = system: EFA 29212 (Enterococcus faecalis (ATCC29212)); settings: for IC90 (μg/ml) EFA 29212: Enterococcus faecalis (ATCC29212); for IC90: Enterococcus faecalis, ATCC29212, Enterococcus faecalis (ATCC29212), read-out: IC90 (μg/ml) EFA 29212
[2] = system: STA 25923 (Staphylococcus aureus (ATCC25923)); settings: for IC90 (μg/ml) STA 25923: Staphylococcus aureus (ATCC25923); for IC90: Staphylococcus aureus, ATCC25923, Staphylococcus aureus (ATCC25923), read-out: IC90 (μg/ml) STA 25923
[3] = system: PAE 27853 (Pseudomonas aeruginosa (ATCC27853)); settings: for IC90 (μg/ml) PAE 27853: Pseudomonas aeruginosa (ATCC27853); for IC90: Pseudomonas aeruginosa, ATCC27853, Pseudomonas aeruginosa (ATCC27853), read-out: IC90 (μg/ml) PAE 27853
[4] = system: BSU 43639 (Bacillus subtilis (ATCC43639)); settings: for IC90 (μg/ml) BSU 43639: Bacillus subtilis (ATCC43639); for IC90: Bacillus subtilis, ATCC43639, Bacillus subtilis (ATCC43639), read-out: IC90 (μg/ml) BSU 43639
[5] = system: SPY 8668 (Streptococcus pyogens (ATCC8668)); settings: for IC90 (μg/ml) SPY 8668: Streptococcus pyogens (ATCC8668); for IC90: Streptococcus, ATCC8668, Streptococcus pyogens (ATCC8668), read-out: IC90 (μg/ml) SPY 8668
[6] = system: LMO 49594 (Listeria monocytogenes (ATCC49594)); settings: for IC90 (μg/ml) LMO 49594: Listeria monocytogenes (ATCC49594); for IC90: Listeria monocytogenes, ATCC49594, Listeria monocytogenes (ATCC49594), read-out: IC90 (μg/ml) LMO 49594
[7] = system: SPN 6305 (Streptococcus pneumoniae (ATCC6305)); settings: for IC90 (μg/ml) SPN 6305: Streptococcus pneumoniae (ATCC6305); for IC90: Streptococcus pneumoniae, ATCC6305, Streptococcus pneumoniae (ATCC6305), read-out: IC90 (μg/ml) SPN 6305
How it was run: (§1)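 Growth-inhibition endpoint: resazurin added 3 h after inoculation, plates incubated overnight, fluorescence at 530/590 nm after 24 h at 37 °C. Inocula of roughly 10–60 CFU per well in Mueller-Hinton medium; compounds titrated five-fold. IC90 reported as μg/ml.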

[8] = system: STA 29213 (Staphylococcus aureus (ATCC29213)); settings: for IC90 (μg/ml) STA 29213: Staphylococcus aureus (ATCC29213); for IC90: Staphylococcus aureus, ATCC29213, Staphylococcus aureus (ATCC29213), read-out: IC90 (μg/ml) STA 29213
How it was run: as §1

[9] = system: STA RMETH (methicilline resistant Staphylococcus aureus (MRSA), a clinical isolate from the University of Antwerp); settings: for IC90: Staphylococcus aureus, MRSA, read-out: IC90 (μg/ml) STA RMETH

Structure (SMILES) | IC90 (μg/ml) EFA 29212 [1] [µg/mL] | IC90 (μg/ml) STA 25923 [2] [µg/mL] | IC90 (μg/ml) PAE 27853 [3] [µg/mL] | IC90 (μg/ml) BSU 43639 [4] [µg/mL] | IC90 (μg/ml) SPY 8668 [5] [µg/mL] | IC90 (μg/ml) LMO 49594 [6] [µg/mL] | IC90 (μg/ml) SPN 6305 [7] [µg/mL] | IC90 (μg/ml) STA 29213 [8] [µg/mL] | IC90 (μg/ml) STA RMETH [9] [µg/mL] | IC90 [1] [µg/mL] | IC90 [3] [µg/mL] | IC90 [4] [µg/mL] | IC90 [5] [µg/mL] | IC90 [6] [µg/mL] | IC90 [9] [µg/mL] | IC90 [8] [µg/mL] | IC90 [2] [µg/mL] | IC90 [7] [µg/mL]
COc1nc2ccc(Br)cc2cc1C(c1ccccc1)C(O)(CCCN1CCCC1)c1ccc2ccccc2c1 (racemic) [Compound 48] | 59.6 (≈ 100 µM) | 9.4 (≈ 15.8 µM) | 47.3 (≈ 79.4 µM) | 59.6 (≈ 100 µM) | 47.3 (≈ 79.4 µM) | 23.7 (≈ 39.8 µM) | 59.6 (≈ 100 µM) | 47.3 (≈ 79.4 µM) | 9.4 (≈ 15.8 µM) | – | – | – | – | – | – | – | – | –
COc1nc2ccc(Br)cc2cc1C(c1ccccc1)C(O)(CCCN1CCCC1)c1ccc2ccccc2c1 (racemic) [Compound 49] | 47.3 (≈ 79.4 µM) | 59.6 (≈ 100 µM) | 53.1 (≈ 89.2 µM) | 59.6 (≈ 100 µM) | 47.3 (≈ 79.4 µM) | 47.3 (≈ 79.4 µM) | 11.9 (≈ 20 µM) | 47.3 (≈ 79.4 µM) | 59.6 (≈ 100 µM) | – | – | – | – | – | – | – | – | –
CSc1nc2ccc(Br)cc2cc1C(c1ccccc1)C(O)(CCCCN(C)C)c1ccc2ccccc2c1 (single isomer, unassigned) [Compound 4] | – | – | – | – | – | – | 1.9 (≈ 3.17 µM) | 1.9 (≈ 3.17 µM) | – | 9.5 (≈ 15.8 µM) | 1.9 (≈ 3.17 µM) | 9.5 (≈ 15.8 µM) | 1.9 (≈ 3.17 µM) | 9.5 (≈ 15.8 µM) | 9.5 (≈ 15.8 µM) | – | – | –
COc1ccc2cc(C(O)(CCCCN(C)C)C(c3ccccc3)c3cc4cc(Br)ccc4nc3OC)ccc2c1 (single isomer, unassigned) [Compound 6] | 9.7 (≈ 15.8 µM) | – | 9.7 (≈ 15.8 µM) | 9.7 (≈ 15.8 µM) | 1.9 (≈ 3.1 µM) | 9.7 (≈ 15.8 µM) | 4.9 (≈ 7.99 µM) | 4.3 (≈ 7.01 µM) | 9.7 (≈ 15.8 µM) | – | – | – | – | – | – | – | – | –
CSc1nc2ccc(Br)cc2cc1C(c1ccccc1)C(O)(CCCCN(C)C)c1ccccc1 (stereo not shown) [Compound 2] | 43.7 (≈ 79.5 µM) | – | 43.7 (≈ 79.5 µM) | – | 8.7 (≈ 15.8 µM) | – | 21.9 (≈ 39.8 µM) | 43.7 (≈ 79.5 µM) | 43.7 (≈ 79.5 µM) | – | – | 43.7 (≈ 79.5 µM) | – | 43.7 (≈ 79.5 µM) | – | – | – | –
COc1nc2ccc(Br)cc2cc1C(c1ccccc1)C(O)(CCCCN(C)C)c1ccc2cc(Br)ccc2c1 (stereo not shown) [Compound 7] | 10.5 (≈ 15.8 µM) | – | – | – | – | – | 2.4 (≈ 3.62 µM) | – | 10.5 (≈ 15.8 µM) | – | 10.5 (≈ 15.8 µM) | 10.5 (≈ 15.8 µM) | 10.5 (≈ 15.8 µM) | 10.5 (≈ 15.8 µM) | – | 2.1 (≈ 3.17 µM) | – | –
COc1nc2ccc(Br)cc2cc1C(c1ccccc1)C(O)(CCCCN(C)C)c1ccc2cc(Br)ccc2c1 (stereo not shown) [Compound 8] | 2.1 (≈ 3.17 µM) | – | 5.3 (≈ 8 µM) | – | 10.5 (≈ 15.8 µM) | – | 10.5 (≈ 15.8 µM) | 2.4 (≈ 3.62 µM) | 2.6 (≈ 3.92 µM) | – | – | – | – | – | – | – | – | –
COc1nc2ccc(Br)cc2cc1C(c1ccccc1)C(O)(CCCCN(C)C)c1cccc2ccccc12 (stereo not shown) [Compound 19] | – | – | – | – | – | – | – | – | – | 14.7 (≈ 25.2 µM) | 14.7 (≈ 25.2 µM) | 14.7 (≈ 25.2 µM) | 14.7 (≈ 25.2 µM) | 11.6 (≈ 19.9 µM) | 14.7 (≈ 25.2 µM) | 14.7 (≈ 25.2 µM) | 14.7 (≈ 25.2 µM) | 14.7 (≈ 25.2 µM)
COc1nc2ccc(Br)cc2cc1C(c1ccccc1)C(O)(CCCCN(C)C)c1ccccc1 (stereo not shown) [Compound 20] | – | – | – | – | 4.2 (≈ 7.87 µM) | – | 2.1 (≈ 3.94 µM) | – | – | 10.6 (≈ 19.9 µM) | 10.6 (≈ 19.9 µM) | 10.6 (≈ 19.9 µM) | – | 13.4 (≈ 25.1 µM) | 10.6 (≈ 19.9 µM) | 10.6 (≈ 19.9 µM) | 10.6 (≈ 19.9 µM) | –
COc1nc2cccc(Br)c2cc1C(c1ccccc1)C(O)(CCCCN(C)C)c1ccc2ccccc2c1 (stereo not shown) [Compound 29] | – | – | – | – | – | – | 9.3 (≈ 15.9 µM) | – | 2.3 (≈ 3.94 µM) | 46.3 (≈ 79.3 µM) | 20.7 (≈ 35.5 µM) | – | 20.7 (≈ 35.5 µM) | – | – | 1.9 (≈ 3.26 µM) | – | –
COc1nc2cc(Br)ccc2cc1C(c1ccccc1)C(O)(CCCCN(C)C)c1ccc2ccccc2c1 (stereo not shown) [Compound 32] | 1.9 (≈ 3.26 µM) | – | 1.9 (≈ 3.26 µM) | – | 1.9 (≈ 3.26 µM) | – | 1.9 (≈ 3.26 µM) | 1.9 (≈ 3.26 µM) | – | – | – | – | – | – | 11.6 (≈ 19.9 µM) | – | – | –
COc1nc2cc(Br)ccc2cc1C(c1ccccc1)C(O)(CCCCN(C)C)c1ccc2ccccc2c1 (stereo not shown) [Compound 33] | 46.3 (≈ 79.3 µM) | – | 52.0 (≈ 89.1 µM) | – | 46.3 (≈ 79.3 µM) | – | 9.3 (≈ 15.9 µM) | 4.1 (≈ 7.03 µM) | 5.8 (≈ 9.94 µM) | – | – | – | – | – | – | – | – | –
COc1ccc2cc(C(O)(CCCCN(C)C)C(c3ccccc3)c3cc4ccccc4nc3OC)ccc2c1 (stereo not shown) [Compound 35] | – | – | 8.5 (≈ 15.9 µM) | – | 3.8 (≈ 7.11 µM) | – | – | – | – | 8.5 (≈ 15.9 µM) | – | – | – | – | 10.7 (≈ 20 µM) | 2.1 (≈ 3.93 µM) | – | 1.7 (≈ 3.18 µM)
COc1nc2ccc(-c3ccccc3)cc2cc1C(c1ccccc1)C(O)(CCCCN(C)C)c1ccc2ccccc2c1 (stereo not shown) [Compound 40] | 1.8 (≈ 3.1 µM) | – | 1.8 (≈ 3.1 µM) | – | 1.8 (≈ 3.1 µM) | – | 1.8 (≈ 3.1 µM) | – | – | – | – | – | – | – | 5.2 (≈ 8.95 µM) | 7.3 (≈ 12.6 µM) | – | –
COc1nc2ccc(-c3ccccc3)cc2cc1C(c1ccccc1)C(O)(CCCCN(C)C)c1ccc2ccccc2c1 (stereo not shown) [Compound 41] | 9.2 (≈ 15.8 µM) | – | 36.6 (≈ 63 µM) | – | 9.2 (≈ 15.8 µM) | – | 9.2 (≈ 15.8 µM) | 9.2 (≈ 15.8 µM) | 9.2 (≈ 15.8 µM) | – | – | 9.2 (≈ 15.8 µM) | – | 9.2 (≈ 15.8 µM) | – | – | – | –
CNCCCCC(O)(CCc1ccccc1)C(c1ccccc1)c1cc2cc(Br)ccc2nc1OC (stereo not shown) [Compound 70] | 2.18 (≈ 3.98 µM) | – | 1.73 (≈ 3.16 µM) | – | 1.73 (≈ 3.16 µM) | – | 0.35 (≈ 0.639 µM) | – | – | – | – | – | – | – | 10.9 (≈ 19.9 µM) | 1.73 (≈ 3.16 µM) | – | –
CNCCCCC(O)(CCc1ccccc1)C(c1ccccc1)c1cc2cc(Br)ccc2nc1OC (stereo not shown) [Compound 71] | 8.68 (≈ 15.9 µM) | – | 8.68 (≈ 15.9 µM) | – | 3.88 (≈ 7.09 µM) | – | 1.73 (≈ 3.16 µM) | 1.73 (≈ 3.16 µM) | 10.92 (≈ 19.9 µM) | – | – | – | – | – | – | – | – | –

Reference: patent US8841321B2, “Quinoline derivatives as antibacterial agents” (Janssen Pharmaceutica NV, priority 2005, dated 2014)
